Laboratory results from the NIST ThermoML archive (doi:10.1021/je100256w).

Assay: cn = amount concentration of the nth substance listed, in mol/dm3
Conditions: 101 kPa, Liquid, Dip Cell

CCCCCCCCCCCCCCCC[N+](C)(C)CCCCCC[N+](C)(C)CCCCCCCCCCCCCCCC.[Br-].[Br-] + O
electrical conductivity [S/m]
Conditions	298 K	303 K	308 K	313 K
c1 = 3.3e-06	7.1e-08	7.2e-08	7.3e-08	7.5e-08
c1 = 6.6e-06	1.31e-07	1.53e-07	1.22e-07	1.33e-07
c1 = 9.9e-06	2.04e-07	2.14e-07	2.09e-07	1.92e-07
c1 = 1.32e-05	2.59e-07	2.69e-07	2.84e-07	2.42e-07
c1 = 1.64e-05	3.27e-07	3.46e-07	3.66e-07	3.21e-07
c1 = 1.96e-05	3.99e-07	4.09e-07	4.21e-07	3.95e-07
c1 = 2.28e-05	4.86e-07	5.06e-07	5.18e-07	4.69e-07
c1 = 2.6e-05	5.26e-07	5.46e-07	5.67e-07	5.41e-07
c1 = 2.91e-05	6.16e-07	6.36e-07	6.57e-07	6.23e-07
c1 = 3.23e-05	6.92e-07	7.02e-07	7.22e-07	6.81e-07
c1 = 3.54e-05	7.86e-07	8.06e-07	8.22e-07	7.7e-07
c1 = 3.85e-05	8.34e-07	8.54e-07	8.91e-07	8.38e-07
c1 = 4.15e-05	9.29e-07	9.49e-07	9.65e-07	9.01e-07
c1 = 4.46e-05	9.65e-07	9.95e-07	1.042e-06	9.69e-07
c1 = 4.76e-05	1.031e-06	1.031e-06	1.071e-06	1.041e-06
c1 = 5.06e-05	1.084e-06	1.084e-06	1.113e-06	1.113e-06
c1 = 5.36e-05	1.145e-06	1.145e-06	1.17e-06	1.18e-06
c1 = 5.66e-05	1.186e-06	1.206e-06	1.226e-06	1.246e-06
c1 = 5.96e-05	1.209e-06	1.249e-06	1.269e-06	1.299e-06
c1 = 6.25e-05	1.272e-06	1.292e-06	1.312e-06	1.352e-06
c1 = 6.54e-05	1.326e-06	1.356e-06	1.376e-06	1.396e-06
c1 = 6.83e-05	1.359e-06	1.379e-06	1.399e-06	1.447e-06
c1 = 7.12e-05	1.396e-06	1.416e-06	1.456e-06	1.486e-06
c1 = 7.41e-05	1.437e-06	1.457e-06	1.477e-06	1.541e-06
c1 = 7.69e-05	1.462e-06	1.482e-06	1.512e-06	1.59e-06

CCCCCCCCCCCCCCCC[N+](C)(C)CCCCC[N+](C)(C)CCCCCCCCCCCCCCCC.[Br-].[Br-] + O
electrical conductivity [S/m]
Conditions	298 K	303 K	308 K	313 K
c1 = 3.3e-06	6.8e-05	6.9e-05	7e-05	7.1e-05
c1 = 6.6e-06	0.000129	0.000135	0.000148	0.00015
c1 = 9.9e-06	0.00021	0.000219	0.00023	0.000236
c1 = 1.32e-05	0.000279	0.00029	0.000292	0.000308
c1 = 1.64e-05	0.000358	0.000376	0.000385	0.000396
c1 = 1.96e-05	0.000418	0.000432	0.000442	0.000456
c1 = 2.28e-05	0.000495	0.000505	0.000514	0.000519
c1 = 2.6e-05	0.000557	0.000564	0.000579	0.000584
c1 = 2.91e-05	0.000634	0.000646	0.000659	0.000684
c1 = 3.23e-05	0.000684	0.000699	0.000715	0.000732
c1 = 3.54e-05	0.000746	0.000766	0.000779	0.000789
c1 = 3.85e-05	0.000803	0.000816	0.000826	0.00087
c1 = 4.15e-05	0.000873	0.000873	0.000896	0.000945
c1 = 4.46e-05	0.000935	0.000935	0.000956	0.000998
c1 = 4.76e-05	0.001	0.001	0.00101	0.00108
c1 = 5.06e-05	0.00103	0.00105	0.00106	0.00112
c1 = 5.36e-05	0.00109	0.00113	0.00113	0.00115
c1 = 5.66e-05	0.00113	0.00116	0.00116	0.00121
c1 = 5.96e-05	0.00119	0.00122	0.00123	0.00125
c1 = 6.25e-05	0.00123	0.00127	0.00129	0.00129
c1 = 6.54e-05	0.00128	0.00132	0.00135	0.00135
c1 = 6.83e-05	0.00133	0.00137	0.00138	0.0014
c1 = 7.12e-05	0.00137	0.00142	0.00145	0.00144
c1 = 7.41e-05	0.00142	0.00146	0.00147	0.00148
c1 = 7.69e-05	0.00144	0.00149	0.0015	0.00152

CCCCCCCCCCCCCCCC[N+](C)(C)CCCC[N+](C)(C)CCCCCCCCCCCCCCCC.[Br-].[Br-] + O
electrical conductivity [S/m]
Conditions	298 K	303 K	308 K	313 K
c1 = 3.3e-06	6.6e-05	6.6e-05	6.7e-05	6.8e-05
c1 = 6.6e-06	0.000121	0.000134	0.00015	0.00016
c1 = 9.9e-06	0.000187	0.000196	0.000207	0.000227
c1 = 1.32e-05	0.000256	0.000274	0.00029	0.000301
c1 = 1.64e-05	0.000326	0.000336	0.000346	0.000372
c1 = 1.96e-05	0.000397	0.000407	0.000429	0.000449
c1 = 2.28e-05	0.000463	0.000486	0.000507	0.000527
c1 = 2.6e-05	0.000539	0.000539	0.000559	0.000575
c1 = 2.91e-05	0.000615	0.000626	0.000642	0.000666
c1 = 3.23e-05	0.00067	0.000679	0.000695	0.000715
c1 = 3.54e-05	0.000736	0.000746	0.000766	0.000787
c1 = 3.85e-05	0.000789	0.000799	0.000799	0.000851
c1 = 4.15e-05	0.000856	0.000866	0.000889	0.000901
c1 = 4.46e-05	0.000916	0.000926	0.000946	0.000966
c1 = 4.76e-05	0.000962	0.000985	0.001	0.00103
c1 = 5.06e-05	0.001	0.00102	0.00105	0.00108
c1 = 5.36e-05	0.00105	0.00106	0.00108	0.0011
c1 = 5.66e-05	0.0011	0.00112	0.00113	0.00115
c1 = 5.96e-05	0.00116	0.00118	0.0012	0.00122
c1 = 6.25e-05	0.00121	0.00123	0.00125	0.00127
c1 = 6.54e-05	0.00126	0.00126	0.00128	0.00133
c1 = 6.83e-05	0.0013	0.00131	0.00133	0.00137
c1 = 7.12e-05	0.00134	0.00137	0.00138	0.0014
c1 = 7.41e-05	0.0014	–	–	–
